Experimental data from patent US12575572B2, “Systems, methods, and apparatuses for disinfection and decontamination” (priority 2020, dated 2026).

Tested on: Phi6 bacteriophage (surrogate for Coronavirus and Ebola)

For [O][Cl+][O-] [ClO2, chlorine dioxide], the “virions recovered from treated coupons” value was “no virions were recovered”.
